# Residue numbers refer to the chain shown, from its start.
# Experiments:
# [1] = target: T1, SNAP-eGFP and CLIP-eGFP (Homo sapiens, UniProt P16455, A121V/A127T/A154D/C150Q/C62A/E30R/G131K/G131N/G132T/G153L/G153S/K125A/K32I/L33F/M134L/M60I/N157G/N157P/Q115S/Q116H/R128A/R135D/R135S/S151G/S152D/S159E/S159L/Y114E); assay: Dimerization of SNAP-eGFP and CLIP-eGFP in transfected HEK293 cells, western blot against eGFP; format: cell-based
# T1 construct: host or cells: HEK293
# T1 sequence (P16455 1-182 E30R/K32I/L33F/C62A/Q115S/Q116H/K125A/A127T/R128A/G131K/G132T/M134L/R135S/C150Q/S151G/S152D/G153L/A154D/N157G/S159E limits assumed): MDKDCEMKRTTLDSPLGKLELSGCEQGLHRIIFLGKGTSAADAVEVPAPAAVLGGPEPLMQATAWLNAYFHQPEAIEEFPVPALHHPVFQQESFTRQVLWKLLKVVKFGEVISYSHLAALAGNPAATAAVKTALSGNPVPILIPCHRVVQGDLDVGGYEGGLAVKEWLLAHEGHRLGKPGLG
# T1 sequence (P16455 1-182 E30R/K32I/L33F/M60I/C62A/Y114E/Q115S/Q116H/A121V/K125A/A127T/R128A/G131N/G132T/M134L/R135D/C150Q/S151G/S152D/G153S/A154D/N157P/S159L limits assumed): T1 sequence (P16455 1-182 E30R/K32I/L33F/C62A/Q115S/Q116H/K125A/A127T/R128A/G131K/G132T/M134L/R135S/C150Q/S151G/S152D/G153L/A154D/N157G/S159E limits assumed) with M60I, Y114E, A121V, K131N, S135D, L153S, G157P, E159L
# Text: Mammalian expression vectors for SNAP-eGFP and CLIP-eGFP were constructed from pSNAPf and pCLIPf (obtained from New England Biolabs of Singapore). eGFP was amplified using primers XhoI eGFP F and NotI eGFP R from pEGFP-NAD. The amplified DNA fragment was digested using XhoI/NotI and cloned into pSNAPf and pCLIPf for C-terminal fused eGFP-SNAP and eGFP-CLIP constructs respectively.
# (§1) HEK293 cells were obtained from ATCC and grown in DMEM medium supplemented by 10% FCS and penicillin-streptomycin at 37° C. and 5% carbon dioxide. All experiments performed were carried out in 24 well plates seeded with 1×10^5 cells per well. Transfection was performed with Lipofectamine 2000 (Invitrogen™, Life Technologies of Singapore) as per manufacturer's instructions the day after seeding. Medium was changed the day after transfection.
# The dimerizers (or Compounds 1 and 2) were dissolved to 1 mM in DMSO and diluted further with DMSO so all applications were done by adding 4 μl of DMSO with compound 1 dissolved in it to 400 μl of medium for each well. Compound 1 was added at the mentioned concentration two days after transfection and incubated for 3 to 6 hours before the cells were harvested with RIPA Lysis and Extraction buffer (from Thermo Fisher Scientific Inc of Illinois of the United States of America). Compound 2 was added at the mentioned concentration three days after transfection and incubated for a specified duration before the cells were harvested. […]
# HEK293 cells were transfected with 250 ng of SNAP-eGFP and CLIP-eGFP. 3 days after transfection, increasing concentrations of 0.1 to 10 μM (0.1 μM, 0.4 μM, 1 μM, 4 μM, and 10 μM) of photocleavable dimerizer (Compound 2) were applied to the cells with fresh medium and the cells were harvested 6 hours after. […] The cleaved samples were equivalent volumes of uncleaved samples subjected to 365 nm illumination for 10 minutes.
# [2] = tested on: SNAP-Gal4 and CLIP-AD2 (firefly luciferase under the control of 9 UAS elements); assay: Luciferase up-regulation through dimerization of SNAP-Gal4 and CLIP-AD2 in transfected HEK293 cells (pGL4.35 reporter); format: cell-based; settings: for luciferase expression after UV illumination: 20 μM, 96-well plate, 365 nm UV for 10 minutes just after application, harvested one day after, FIG. 8d; for luciferase production: HEK293, harvested 24 hours after treatment, FIG. 8a
# Text: pGL4.35 (obtained from Promega of Singapore) contains firefly luciferase under the control of 9 UAS elements. SNAP was amplified from pSNAPf with SNAP-XhoI-C and SNAP NheI N; CLIP from pCLIPf with NheI NLC CLIP and SNAP-XhoI-C; Gal4 from pCMV-Gal4 with Gal4 HisTag BamHI and SNAP-Gal4 N; activation domains (AD2) from pHet-Act2-1 with SNAP-p65AD-HSF1AD N and p65 AD-HSF1AD HisTag BamHI. The individual PCR reactions were combined by SOEing PCR (Splicing by Overlap Extension) to make SNAP-Gal4 and CLIP-AD2 PCR products. These were then cloned into peGFP-C1 with the NheI and BamHI sites, removing eGFP in the process. Both constructs contained the nuclear localizing signal.
# as §1
# The dimerizers (or Compounds 1 and 2) were dissolved to 1 mM in DMSO and diluted further with DMSO so all applications were done by adding 4 μl of DMSO with compound 1 dissolved in it to 400 μl of medium for each well. Compound 1 was added at the mentioned concentration two days after transfection and incubated for 3 to 6 hours before the cells were harvested with RIPA Lysis and Extraction buffer (from Thermo Fisher Scientific Inc of Illinois of the United States of America). Compound 2 was added at the mentioned concentration three days after transfection and incubated for a specified duration before the cells were harvested.
# HEK293 cells (in a 24-well plate) transfected with 400 ng pSNAP-Gal4 (Gal4 is a DNA-binding domain fused to SNAP), 200 ng pCLIP-AD2 (AD2 is a transcriptional activator fused to CLIP) and 100 ng pGL4.35 (GL4.35 is a luciferase reporter construct containing nine Gal4 binding motif for gene activation) were treated with stated amounts of either Compound 1 or 2 in 400 μl medium 1 day after transfection. Cells were harvested 24 hours after treatment and the levels of luciferase measured. FIG. 7 is a schematic diagram showing the up-regulation of luciferase.
# Here, the cells were transfected as above and 8 μM of compound 2 was added to the cells one day after transfection. One day after, the cells were either illuminated with a fluorescent lamp or with a 365 nm UV lamp for 5 minutes. 0, 6, 24 or 48 hours later, the cells were harvested and the levels of luciferase measured.
# The cells were transfected as above and 10 μM of compound 2 was added to the cells one day after transfection. One day after, the cells were illuminated with a 365 nm UV lamp for 10 minutes. […] Experiments were carried out in triplicates. The purpose of this experiment is to use a slightly higher amount of compound 2 and a longer UV irradiation time to optimize the linker cleavage.
# HEK293 cells were transfected with the same ratio of plasmids in a 96-well plate and treated with 2% DMSO, 20 μM compound 1 or 20 μM compound 2 one day after transfection. Just after application, some of the cells were illuminated with 365 nm UV for 10 minutes. One day after, the cells were harvested.
Structure (SMILES),"reversal of dimerization by 365 nm illumination ([1]; 365 nm illumination for 10 minutes, FIG. 6d)","induction of dimerization of SNAP-eGFP and CLIP-eGFP ([1]; HEK293, 0.1 to 10 μM, harvested 6 hours after, FIG. 6d)","expression of luciferase, UV illumination compared to fluorescent lamp ([2]; 8 μM, 365 nm UV lamp for 5 minutes, harvested 0, 6, 24 or 48 hours later, FIG. 8b)",luciferase expression after UV illumination [2],luciferase upregulation after exposure to UV illumination ([2]; FIG. 8b to FIG. 8d),luciferase production [2],"stability of the dimer in the cell (no change in dimerization) ([1]; HEK293, 5 μM, FIG. 6c)","time after application to maximal dimerization ([1]; HEK293, 5 μM, FIG. 6c)","time after application to near saturation of dimerization ([1]; HEK293, 5 μM, FIG. 6c)","dimerization of SNAP-eGFP and CLIP-eGFP (specificity) ([1]; HEK293, SNAP-eGFP and CLIP-eGFP together vs either alone, 0, 5 or 20 μM, harvested 6 hours after, FIG. 6a)","cell penetration ([1]; HEK293 cells in culture, applied with DMSO)","concentration at which dimerization occurs ([1]; HEK cells, 0.1 nM to 10,000 nM applied, harvested 3 hours after, FIG. 6b)","dose dependence of heterodimerization ([1]; HEK cells, 0.1 nM to 10,000 nM, harvested 3 hours after, FIG. 6b)"
COc1cc(C(C)NC(=O)CCCC(=O)NCc2ccc(COc3nc(N)nc4[nH]cnc34)cc2)c([N+](=O)[O-])cc1OCCCC(=O)NCCOCCOCCOCCNC(=O)NCc1ccc(COc2nccc(N)n2)cc1 (stereo not drawn) [Compound 2],partially reversing dimerization,could induce dimerization at lower concentrations than compound 1,lower expression of luciferase,decreased luciferase expression,less effective,luciferase was produced,,,,,,,
Nc1ccnc(OCc2ccc(CNC(=O)NCCOCCOCCOCCNC(=O)CCCC(=O)NCc3ccc(COc4nc(N)nc5[nH]cnc45)cc3)cc2)n1 [Compound 1],,,,did not,,produced in a dose-dependent fashion,≥ 3 days,≤ 24 h,3 h,heterodimerization occurred specifically,could penetrate cells in culture,400 nM,dose-dependent manner

# Source: patent US20160297820A1, “DIMERIZER COMPOUND” (AGENCY FOR SCIENCE, TECHNOLOGY AND RESEARCH, priority 2013, published 2016)
